Assays:
KG1 cells = test: MTT cytotoxicity assay, KG1; assay type: cell-based, human; settings: Mean ± SD
Procedure: (§1) Cytotoxicity was measured by the MTT assay.

in vitro = settings: human
Procedure: (§10) Meanwhile, the cytotoxicity against human embryonic kidney cells (HEK-293) was evaluated for their toxic selectivity.
(§11) Human leukemia cell lines (U-937, HL-60, KG1 and HEL) and human embryonic kidney cells (HEK-293) were purchased from American Type Culture Collection (ATCC) (Manassas, VA, USA). Cells were cultured in RPMI 1640 supplemented with 10% fetal bovine serum (Gibco Life Technologies, Grand Island, NY, USA), 50 U/mL penicillin and 100 μg/mL streptomycin and maintained in a humidified atmosphere containing 5% CO2 at 37 °C. Penicillin and streptomycin were purchased from Hyclone (Logan, UT, USA).
(§12) Cytotoxicity was measured by the MTT assay. Briefly, cells were cultured in RPMI 1640 supplemented with 10% fetal bovine serum, 10 mmol/L Hepes, 50 units/mL penicillin, 50 μg/mL streptomycin, and 100 μg /mL gentamicin and were maintained at 37 °C in 5% CO2. A total of 2.5 × 10^4 cells in growth media were placed in each well of a 96-well flat-bottom plate. After 12 h of incubation, the growth medium was replaced by media containing different concentrations of the test samples. Cytotoxicity was determined at 48 h from the MTT absorbance (490 nm) reading for each concentration compared to the control. At least three replications for each sample were used to determine the cytotoxicity.

U-937 cells [1] = test: MTT cytotoxicity assay, U-937; assay type: cell-based, human; settings: Mean ± SD
Procedure: as §1

HEL cells = test: MTT cytotoxicity assay, HEL; assay type: cell-based, human; settings: 48 h, Mean ± SD
Procedure: as §1

HL-60 cells = test: MTT cytotoxicity assay, HL-60; assay type: cell-based, human; settings: Mean ± SD
Procedure: as §1

[2] = system: human embryonic kidney cells HEK-293; test: MTT cytotoxicity assay, HEK-293 (toxic selectivity); settings: read-out: IC50 HEK-293; MTT, 48 h, Mean ± SD
Procedure: as §10, §11, §12

U-937 cells [3] = test: Mitochondrial transmembrane potential, Rhodamine 123; assay type: cell-based, human; settings: Rhodamine 123, compared with the control group
From the text: (§2) Figure 2 HMC initiated apoptosis in U-937 cells through mitochondrial and Caspase cascade. (A) Apoptotic U-937 cells were observed after the cells were stained by Hoechst 33258. (B) Mitochondrial transmembrane potential was reduced in U-937 cells stained by Rodamine123. […] (D–F) HMC impacted the mRNA levels and protein expressions of Bax and Bcl-2 in U-937 cells leading to the activation of caspase 3. Data are presented as means ± SD of three independent tests. * p < 0.05 versus control, ** p < 0.01 versus control.
(§3) To make it clear whether HMC-induce apoptosis was related to mitochondrial function, mitochondrial transmembrane potential was assessed using Rhodamine 123. […] Meanwhile, the ATP level of mitochondria was measured in U-937 cells treated by HMC.

Bax mRNA = test: RT-PCR Bax mRNA in U-937 cells; assay type: cell-based, human; settings: 2.0 µmol/L, 24 h
Procedure: (§4) Since Bcl-2 family members were critical regulators of the mitochondrial pathway that induced intrinsic caspase activation, RT-PCR was applied to detect the mRNA level of Bax and Bcl-2 in HMC-treated U-937 cells. […] Meanwhile, Western blot analyses were carried out to observe the expressions of Bcl-2 and Bax.
(§5) Total RNA extraction for leukemia cells was performed by using Trizol method. U-937 cells were seeded in 6 well plates for 24 h, and then the cells were treated by 2.0 µmol/L HMC for another 24 h. After treatment, the cells were collected for RNA extraction. The forward and reversed primers of Bax were […] and […]. The forward and reversed primers of Bcl-2 were […] and […]. The forward and reversed primers of GAPDH were […] and […]. The reaction was conducted under the conditions with 94 °C for 30 s, 95 °C for 5 s, 62 °C for 30 s, 72 °C for 30 s for 30 cycles. Identity of the PCR-products was controlled by melting curve analysis. Standard curves were prepared from isolated PCR products by serial dilution. Data were normalized towards GAPDH expression and statistically analyzed.

Ras = test: Western blot Ras in U-937 cells; assay type: cell-based, human; settings: 2.0 µmol/L, 0, 24 and 48 h
From the text: (§6) Unusual activation of Ras/Raf/MAPK signaling pathway is one of main characteristic of human cancer. In this study, the Ras/Raf/MAPK pathway was investigated in HMC-induced U-937 cell apoptosis. Genistein, a broad-spectrum inhibitor of protein tyrosine kinases (PTKs), was used to detect the cell viability after HMC treatment. […] Moreover, the expressions of Ras/Raf/ERK in U-937 cells were detected after HMC treatment in different time courses.
(§7) Figure 3 Apoptosis via Ras/Raf/ERK signaling pathway in U-937 cells after HMC treatment. (A) Cell viability was assessed using MTT method in U-937 cells after pretreated by 10 µmol/L Genistein for 1 h, and then the cells were incubated without or with 2.0 µmol/L HMC for 48 h. […] Data are presented as means ± SEM of three independent tests. * p < 0.05 versus control, ** p < 0.01 versus control.
(§8) U-937 cells were treated with 2.0 µmol/L HMC for 0, 24 and 48 h, respectively. […] After 14,000× g centrifugation for 15 min, the protein content of supernatant was determined by the Bio-Rad DC protein assay (Bio-Rad Laboratories, Hercules, CA, USA). […] Proteins were detected using primary antibodies, followed by HRP-conjugated secondary antibody. Labeling was detected using the ECL system (Amersham Biosciences Corp., Piscataway, NJ, USA).

U-937 cells [4] = test: Hoechst 33258 staining, apoptotic morphology; assay type: cell-based, human; settings: 2.0 μmol/L, 24 h
From the text: Based on the cytotoxic results, compound 8 (HMC) has pronounced cytotoxicity against human leukemia cells, especially to U-937 cells. Therefore, it was worthy of investigating the cytotoxic mechanism of HMC in U-937 cell death. To elucidate the characteristics of HMC-induced U-937 cells, morphologic changes were examined.
as §2

[5] = MTT cytotoxicity assay, HEK-293 (toxic selectivity); settings: human, HEK-293 cells, IC50 HEK-293, MTT, Mean ± SD
Procedure: as §10, §11, §12

Bax = test: Western blot Bax in U-937 cells; assay type: cell-based, human; settings: 2.0 µmol/L, 24 h
Procedure: as §4
(§9) U-937 cells were treated with 2.0 µmol/L HMC for 0, 24 and 48 h, respectively. The whole cells were collected, and then the cell pellets were resuspended with RIPA buffer that contained a mixture of protease inhibitors at 4 °C for 30 min. After 14,000× g centrifugation for 15 min, the protein content of supernatant was determined by the Bio-Rad DC protein assay (Bio-Rad Laboratories, Hercules, CA, USA). […] Proteins were detected using primary antibodies, followed by HRP-conjugated secondary antibody. Labeling was detected using the ECL system (Amersham Biosciences Corp., Piscataway, NJ, USA).

total ERK = test: Western blot total ERK in U-937 cells; assay type: cell-based, human; settings: 2.0 µmol/L, 0, 24 and 48 h
From the text: as §6, §7, §8

U-937 cells [6] = test: ATP luminescence level; assay type: cell-based, human; settings: 2.0 μmol/L, 24 h
Procedure: as §3
ATP luminescence was detected according to the manufactured information to evaluate the mitochondrial damage after 2.0 µmol/L HMC insulting. U-937 cells were treated without or with HMC for 24 h. After incubation, equilibrate the plates and its contents at room temperature for 30 min. One hundred microliters of cell titer reagent was added to each well in a 96-well plate and the plate was shaken gently for 2 min to induce cell lysis. The plate was incubated at room temperature for 10 min to stabilize luminescent signal and then record luminescence.

Bcl-2 mRNA = test: RT-PCR Bcl-2 mRNA in U-937 cells; assay type: cell-based, human; settings: 2.0 µmol/L, 24 h
Procedure: as §4, §5

Caspase 3 = Caspase 3 activation in U-937 cells; assay type: cell-based, human; settings: 2.0 μmol/L, 24 h
Procedure: as §4, §9

p-Raf = test: Western blot p-Raf in U-937 cells; assay type: cell-based, human; settings: 2.0 µmol/L, 0, 24 and 48 h
From the text: as §6, §7, §8

p-ERK1/2 = test: Western blot p-ERK1/2 in U-937 cells; assay type: cell-based, human; settings: 2.0 µmol/L, 0, 24 and 48 h
From the text: as §6, §7, §8

Bcl-2 = test: Western blot Bcl-2 in U-937 cells; assay type: cell-based, human; settings: 2.0 µmol/L, 24 h
Procedure: as §4, §9

U-937 cells [7] = test: MTT cell viability, genistein pretreatment plus HMC; assay type: cell-based, human; settings: 10 µmol/L Genistein pretreatment 1 h, then 2.0 µmol/L HMC 48 h
From the text: as §6, §7

Row | Molecule | IC50 (KG1 cells; Homo sapiens, KG-1, 48 h) [µM] | IC50 at 48 h (in vitro) [µM] | IC50 (U-937 cells [1]; Homo sapiens, U-937, 48 h) [µM] | IC50 (HEL cells; Homo sapiens, HEL) [µM] | IC50 (HL-60 cells; Homo sapiens, HL-60, 48 h) [µM] | also measured
1 | OC[C@H]1O[C@@H](OCCc2c[nH]c3ccccc23)[C@H](O)[C@@H](O)[C@@H]1O [Compound 1, 2-(indol-3-yl)ethyl-β-D-glucopyranoside] | 23.1 ± 1.4 | > 200 | 52.1 ± 2.6 | 121 ± 5.5 | 78.9 ± 3.8 | 
2 | C[C@@H]1O[C@@H](OC[C@H]2O[C@@H](OCCc3c[nH]c4ccccc34)[C@H](O)[C@@H](O)[C@@H]2O)[C@H](O)[C@H](O)[C@H]1O [Compound 2, 2-(indol-3-yl)ethyl-α-L-rhamnopyranosyl-(1 → 6)-β-D-glucopyranoside] | 60.2 ± 2.7 | > 200 | 80.2 ± 4.5 | 131 ± 4.9 | 55.3 ± 3.4 | 
3 | COC(=O)c1nccc2c1[nH]c1cc(OC)ccc12 [Compound 7, harmic acid methyl ester] | 56.8 ± 2.5 | 164 ± 8.1 | 22.3 ± 1.4 | 35.2 ± 2.8 | 44.3 ± 2.1 | 
4 | COc1ccc2c3c([nH]c2c1)C(C)=NCC3 [Compound 10, protonated harmaline] |  |  |  |  |  | IC50 (KG1 cells; 48 h): 56.9 ± 2.3 µM; IC50 [2]: 132 ± 4.6 µM; IC50 (U-937 cells [1]; 48 h): 15.3 ± 0.7 µM; IC50 (HEL cells): 21.2 ± 1.1 µM; IC50 (HL-60 cells; 48 h): 45.7 ± 2.1 µM
5 | COc1ccc2c(c1)NC(=O)[C@]2(O)CCNC(C)=O [Compound 3, (S)-3-hydroxy-3-(N-acetyl-2-aminoethyl)-6-methoxyindol-2-one] | > 200 | 122 ± 5.7 | 75.3 ± 2.8 | 55.3 ± 3.2 | 36.2 ± 1.1 | 
6 | COc1ccc2c([nH]c3c(C)nccc32)c1O[C@@H]1O[C@H](CO)[C@@H](O)[C@H](O)[C@H]1O [Compound 6, ruin] | 44.5 ± 2.1 | > 200 | 30.6 ± 1.2 | 71.6 ± 2.7 | 60.7 ± 2.9 | 
7 | CCc1cc2nccc3c4ccc(OC)cc4n(c1=O)c23 [Compound 11, luotonin C] | 113 ± 5.6 | > 200 | 49.6 ± 1.9 | 68.3 ± 3 | 87.3 ± 3.7 | 
8 | COc1ccc2c3c([nH]c2c1)-c1nc2ccccc2c(=O)n1CC3 [Compound 12, 11-methyoxyl-rutaecarpine] | 88.1 ± 3.7 | > 200 | 55.3 ± 1.7 | 121 ± 5.5 | 93.8 ± 6.8 | 
9 | COc1ccc2c3c([nH]c2c1)C=NCC3 [Compound 8, harmalacidine] | 32.6 ± 1.7 |  | 3.1 ± 0.2 | 25.7 ± 1.1 | 61.3 ± 2.8 | mitochondrial transmembrane potential (U-937 cells [3]): obviously reduced; Bax mRNA level (Bax mRNA): increase; expression of Ras (Ras): down-regulate; morphologic alterations of cell apoptosis (membrane blebbing, nuclear condensation, granular apoptotic bodies) (U-937 cells [4]): characteristic morphologic alterations of cell apoptosis were observed; IC50 at 48 h [5]: > 200 µM; expression of pro-apoptotic Bax (Bax): began to increase; total ERK (total ERK): kept no change; ATP level (U-937 cells [6]): reduce; Bcl-2 mRNA level (Bcl-2 mRNA): reduce; Caspase 3 activation (Caspase 3): activated; expression of p-Raf (p-Raf): down-regulate; expression of p-ERK1/2 (p-ERK1/2): down-regulate; expression of anti-apoptotic Bcl-2 (Bcl-2): began to decrease
10 | O=c1c(-c2ccc(O)cc2)coc2cc(O)cc(O)c12 [genistein, Genistein] |  |  |  |  |  | cell viability after HMC co-incubation compared with HMC-treated only (U-937 cells [7]): significantly decrease
11 | N.N.[Cl][Pt][Cl] [Cisplatin, cisplatin, reference compound] |  |  |  |  |  | IC50 (KG1 cells; 48 h): 4.1 ± 0.3 µM; IC50 (U-937 cells [1]; 48 h): 6.3 ± 0.5 µM; IC50 (HEL cells): 7.7 ± 0.2 µM; IC50 (HL-60 cells; 48 h): 13.5 ± 0.4 µM
12 | harmol [Compound 4] |  |  |  |  |  | IC50 (KG1 cells; 48 h): 47.7 ± 2.3 µM; IC50 [2]: > 200 µM; IC50 (U-937 cells [1]; 48 h): 46.1 ± 2 µM; IC50 (HEL cells): 54.6 ± 2.3 µM; IC50 (HL-60 cells; 48 h): 62 ± 2.8 µM
13 | COc1ccc2c(c1)[nH]c1c(C)nccc12 [Compound 5, harmine] | 62.7 ± 2.8 |  | 23.1 ± 0.9 | 20.3 ± 1.1 | 71.2 ± 3.3 | IC50 at 48 h [5]: > 200 µM
14 | COc1ccc2c3c([nH]c2c1)C(C)=NCC3 [Compound 9, harmaline] | 46.8 ± 1.9 |  | 10.6 ± 0.7 | 20.1 ± 1.2 | 55.3 ± 2.4 | IC50 at 48 h [5]: 156 ± 7.2 µM

Source: paper PMC4663518, “Cytotoxic Indole Alkaloids against Human Leukemia Cell Lines from the Toxic Plant Peganum harmala” (Toxins, 2015)
